In brackets after ≈: the same amount, converted by molar mass.
Experiments:
Type in all cases: cell-based
S. aureus = test: Disc diffusion assay (DDA) of PKZ6 and PKZ18 analogs with S. aureus; conditions: Table 4, 150 μg/ml, ✓ = zone of inhibition observed
Excerpt: (§1) The identity and purity of both PKZ 6 and 18 was confirmed by mass spectroscopy. Forty commercially available compounds chosen on the basis of initial in silico selections and similarity to our two hits were screened by disc diffusion assay (DDA) to determine their relative antibacterial activity with S. aureus. […] These 14 compounds were further evaluated by minimum inhibitory concentration assays (MIC)^41,42, and minimum bactericidal assays (MBC)^41 to confirm antibacterial activity, determine the concentration at which S. aureus growth is inhibited in liquid culture (MIC) and if they are acting as bacteriostatic or bactericidal agents (MBC). […] Representative embodiments are shown below.
All compounds were tested at a concentration of 150 μg/ml.

E. coli ATCC 25922 [1] = test: MBC determination; conditions: Table 5 analogs; triplicate experiments; N/O = not observed at concentrations tested (512-0.25 μg/mL)
Protocol: (§2) Following 24 h incubation of these subcultures at 37° C., MBC values were recorded as the lowest compound concentration at which no viable colonies were observed.

S. aureus ATCC 29213 [2] = test: Broth microdilution MIC; conditions: Table 5 analogs, triplicate experiments, N/O = not observed at concentrations tested (512-0.25 μg/mL); for MIC: Staphylococcus aureus, ATCC29213, read-out: S. aureus MIC
Excerpt: as §1
Broth microdilution assays^77, 78 were performed with B. subtilis, and S. aureus to determine the lowest compound concentration inhibiting visible growth, i.e., minimum inhibitory concentration (MIC) of the 4 original compounds. […] The insolubility of the fourth compound may account for its lack of antibacterial activity. […] The MICs of each compound are moderate.
Strains were grown on trypticase soy agar (TSA) with 5% sheep blood at 37° C. for 24 hours. Five isolated colonies were used to inoculate 5 mL cation-adjusted Mueller-Hinton broth (CAMHB) contained in a 50 mL centrifuge tube. The resulting culture was incubated shaking at 200 rpm for 3 hours at 37° C. and then diluted in CAMHB until its turbidity matched that of a 0.5 McFarland standard (OD625 0.08-0.10). After the culture had been standardized against a 0.5 McFarland standard, it was diluted 1:10 in CAMHB and then 5 μL of this dilution was added to the appropriate wells of a 96-well, flat-bottomed tissue culture plate in which each row contained a twofold dilution series of a particular compound ranging in concentration from 0.25 μg/mL to 512 μg/mL. Each plate also included a sterility control well containing CAMHB to which standardized inoculum was not added and a growth control well containing CAMHB to which 5 μL standardized inoculum was added. […] With the exception of the sterility control well, all wells were inoculated within 15 minutes of inoculum preparation to ensure that the starting concentration of bacteria in each well was approximately 5×10^5 CFU/m L. A Tecan Sunrise microplate absorbance reader was used to measure the OD620 of each well before and after 20 h incubation at 37° C. MIC values were recorded as the lowest compound concentration at which no visible growth was observed after this incubation period.

E. coli ATCC 25922 [3] = test: Broth microdilution MIC (Gram negative specificity control); conditions: Table 5 analogs, triplicate experiments, N/O = not observed at concentrations tested (512-0.25 μg/mL)
S. aureus ATCC 29213 [4] = test: MBC determination; conditions: Table 5 analogs, triplicate experiments, N/O = not observed at concentrations tested (512-0.25 μg/mL)
Excerpt: as §1, §2

MIC (S. aureus ATCC 29213 [2]) [µg/mL]	SMILES	ZOI observed (S. aureus)	S. aureus (MBC) (S. aureus ATCC 29213 [4])	also measured
–	O=c1cc(O)c2c(=O)n3c4c(cccc4c2o1)CCC3 [Compound 0611]	✓	–	–
–	O=C(NCCN1CCNCC1)C1=C(O)C2=CC=CC3CCN(C1=O)C23 (stereo not drawn) [Compound 0613]	✓	–	–
–	NCCNC(=O)c1c(O)c2cccc3c2n(c1=O)CCC3 [Compound 0615]	✓	–	–
–	CCCCc1ccc(-c2nc(NC(=O)C3CC=CCC3C(=O)O)sc2C)cc1 (stereo not drawn) [Compound 1805]	✓	–	–
–	CCCc1ccc(-c2nc(NC(=O)C3CC(C)=C(C)CC3C(=O)O)sc2C)cc1 (stereo not drawn) [Compound 1808]	✓	–	–
256 (≈ 666 µM)	CC1=C(C)CC(C(=O)Nc2nc(-c3ccc(C)cc3)c(C)s2)C(C(=O)O)C1 (stereo not drawn) [Compound 1810]	✓	N/O	E. coli (MBC) (E. coli ATCC 25922 [1]): N/O; MIC (E. coli ATCC 25922 [3]; Escherichia coli, ATCC25922, read-out: E. coli MIC): 512 µg/mL (≈ 1330 µM)
–	O=C(O)C1C2CCC(C2)C1C(=O)Nc1nc(-c2cccs2)cs1 (stereo not drawn) [Compound 1813]	✓	N/O (N/O)	E. coli (MBC) (E. coli ATCC 25922 [1]): N/O (N/O); S. aureus MIC (S. aureus ATCC 29213 [2]): N/O (N/O); E. coli MIC (E. coli ATCC 25922 [3]): N/O (N/O)
128 (≈ 338 µM)	O=C(O)C1C2CCC(C2)C1C(=O)Nc1nc(-c2ccc(F)cc2F)cs1 (stereo not drawn) [Compound 1819]	✓	–	MBC (S. aureus ATCC 29213 [4]; Staphylococcus aureus, ATCC29213, read-out: S. aureus (MBC)): 512 µg/mL (≈ 1350 µM)
64 (≈ 150 µM)	C[C@@H]1CC[C@@H](C)[C@H](C(=O)Nc2nc(-c3ccc(Cl)cc3Cl)cs2)C1C(=O)O (stereo partly drawn) [Compound 1820]	✓	N/O	–
